Experimental data from ChEMBL document CHEMBL6127025, “Discovery of a potent, selective, and orally available EGFR C797S mutant inhibitor (DS06652923) with in vivo antitumor activity” (Bioorg Med Chem, 2024).
≈ marks a conversion by molar mass, not a printed value. Values belong to the compound of their own block, whether it stands above or below them.

How the values were obtained:
BaF3 [1] = assay: Anti-proliferative activity against mouse BaF3 cells expressing EGFR […]/T790M/C797S mutant incubated for 3 days by Cell Titer Glo 2.0 assay; format: functional; settings: BaF3, 72 h, time 3 day
BaF3 [2] = assay: Anti-proliferative activity against mouse BaF3 cells expressing wild-type EGFR incubated for 3 days by Cell Titer Glo 2.0 assay; format: functional; settings: BaF3, 72 h, time 3 day
BaF3 [3] = assay: Anti-proliferative activity against mouse BaF3 cells expressing EGFR L858R/T790M/C797S mutant incubated for 3 days by Cell Titer Glo 2.0 assay; format: functional; settings: BaF3, 72 h, time 3 day
[4] = Lipophilicity, logD of compound; format: physicochemical; settings: octanol/water
[5] = Metabolic stability in human liver microsomes assessed as compound remaining; format: ADME, Microsome
[6] = Metabolic stability in mouse liver microsomes assessed as compound remaining; format: ADME, Microsome
[7] = Solubility of compound at pH 1.2; format: physicochemical; settings: buffer
[8] = Apparent permeability in MDCK cells; format: ADME, cell-based, Canis lupus familiaris; settings: dog
[9] = Plasma protein binding in human; format: ADME, cell-free; settings: read-out: PPB
[10] = Plasma protein binding in mouse; format: ADME, cell-free; settings: read-out: PPB
BaF3 [11] = assay: Antitumor activity against mouse BaF3 cells expressing EGFR […]/T790M/[…] mutant allografted in Balb/c nude mouse administered orally once daily for 5 days consecutively; format: functional, cell-based; settings: dose 25-100 mg/kg, route po, time 5.0 day
BaF3 [12] = assay: Antitumor activity against mouse BaF3 cells expressing EGFR […]/T790M/[…] mutant allografted in Balb/c nude mouse administered orally twice daily for 5 days consecutively; format: functional, cell-based; settings: dose 12.5-25 mg/kg, route po, time 5.0 day
BaF3 [13] = assay: Antitumor activity against mouse BaF3 cells expressing EGFR […]/T790M/[…] mutant allografted in Balb/c nude mouse at 12.5 mg/kg, po bid for 5 days consecutively relative to control; format: functional; settings: BaF3, 120 h, time 5 day, read-out: TGI
BaF3 [14] = assay: Antitumor activity against mouse BaF3 cells expressing EGFR […]/T790M/[…] mutant allografted in Balb/c nude mouse at 25 mg/kg, po qd for 5 days consecutively relative to control; format: functional; settings: BaF3, 120 h, time 5 day, read-out: TGI
BaF3 [15] = assay: Antitumor activity against mouse BaF3 cells expressing EGFR […]/T790M/[…] mutant allografted in Balb/c nude mouse at 25 mg/kg, po bid for 5 days consecutively relative to control; format: functional; settings: BaF3, 120 h, time 5 day, read-out: TGI
BaF3 [16] = assay: Antitumor activity against mouse BaF3 cells expressing EGFR […]/T790M/[…] mutant allografted in Balb/c nude mouse at 100 mg/kg, po qd for 5 days consecutively relative to control; format: functional; settings: BaF3, 120 h, time 5 day, read-out: TGI
[17] = Toxicity in Balb/c nude mouse allografted with mouse BaF3 cells expressing EGFR […]/T790M/[…] mutant assessed as body weight loss at 12.5 to 25 mg/kg, po bid for 5 days consecutively; format: organism-based; settings: in vivo, 120 h, dose 12.5-25 mg/kg, time 5 day
[18] = Toxicity in Balb/c nude mouse allografted with mouse BaF3 cells expressing EGFR […]/T790M/[…] mutant assessed as body weight loss at 25 to 100 mg/kg, po qd for 5 days consecutively; format: organism-based; settings: in vivo, 120 h, dose 25-100 mg/kg, time 5 day
[19] = Toxicity in Balb/c nude mouse allografted with mouse BaF3 cells expressing EGFR […]/T790M/[…] mutant assessed as signs of toxicity at 12.5 to 25 mg/kg, po bid for 5 days consecutively; format: organism-based; settings: in vivo, 120 h, dose 12.5-25 mg/kg, time 5 day
[20] = Toxicity in Balb/c nude mouse allografted with mouse BaF3 cells expressing EGFR […]/T790M/[…] mutant assessed as signs of toxicity at 25 to 100 mg/kg, po qd for 5 days consecutively; format: organism-based; settings: in vivo, 120 h, dose 25-100 mg/kg, time 5 day
[21] = In vivo inhibition of phosphorylation of EGFR […]/T790M/[…] mutant at Y1068 in mouse BaF3 cells allografted in Balb/c nude mouse at 12.5 to 100 mg/kg, po measured after 6 hrs by Western blot analysis relative to control; format: functional; settings: dose 12.5-100 mg/kg
[22] = Solubility of compound at pH 6.8; format: physicochemical; settings: buffer

SMILES: CC(C)Oc1cc(Nc2ccnc(-c3cnn(S(=O)(=O)C4CC4)c3)n2)ncc1-c1cnn([C@@H]2CCN(C)C2)c1
- GI50 (BaF3 [1]): 21 nM
- GI50 (BaF3 [2]): 318 nM

SMILES: CC(C)Oc1cc(Nc2ccnc(-c3cnn(S(=O)(=O)C4CC4)c3)n2)ncc1-c1cn([C@H]2C[C@H](C)N(C)C2)nc1F
- GI50 (BaF3 [1]): 43 nM
- GI50 (BaF3 [2]): 856 nM

SMILES: CC(C)Oc1cc(Nc2ccnc(-c3cnn(S(=O)(=O)C4CC4)c3)n2)ncc1-c1cnn(C)c1
- GI50 (BaF3 [1]): 61 nM
- GI50 (BaF3 [2]): 879 nM

SMILES: CC(C)Oc1cc(Nc2ccnc(-c3cnn(S(=O)(=O)C4CC4)c3)n2)ncc1-c1cnn(-c2ccncc2)c1
- GI50 (BaF3 [1]): 601 nM
- GI50 (BaF3 [2]): > 10000 nM

SMILES: CC(C)Oc1cc(Nc2ccnc(-c3cnn(S(=O)(=O)C4CC4)c3)n2)ncc1-c1cnn(C2CCOCC2)c1
- GI50 (BaF3 [1]): 46 nM
- GI50 (BaF3 [2]): 353 nM

SMILES: Cc1nn([C@H]2C[C@H](C)N(C)C2)cc1-c1cnc(Nc2ccnc(-c3cnn(S(=O)(=O)C4CC4)c3)n2)cc1OC(C)C
- GI50 (BaF3 [1]): 168 nM
- GI50 (BaF3 [2]): 2290 nM

SMILES: CC(C)Oc1cc(Nc2ccnc(-c3cnn(S(=O)(=O)C4CC4)c3)n2)ncc1-c1cnn([C@H]2C[C@H](C)N(C)C2)c1
- GI50 (BaF3 [1]): 26 nM
- GI50 (BaF3 [2]): 387 nM

These reach a lower GI50 (BaF3 [1]). Values come first.

- GI50 (BaF3 [1]): 9.4 nM
- GI50 (BaF3 [2]): 760 nM
- GI50 (BaF3 [3]): 13 nM
- logD [4]: 4.6
- Stability [5]: 18%
- Stability [6]: 55%
- solubility [7]: 1200 µg/mL (≈ 1910 µM)
- Papp [8]: 9 ×10⁻⁶ cm/s
- fraction unbound [9]: < 0.002
- fraction unbound [10]: < 0.002
SMILES: CC(C)Oc1cc(Nc2ccnc(-c3cnn(S(=O)(=O)C4CC4)c3)n2)ncc1-c1cn(C2CCN(C)CC2)nc1OC(F)F
- Activity (BaF3 [11]): Dose-Dependent Effect
- Activity (BaF3 [12]): Dose-Dependent Effect
- inhibition in vivo at 12.5 mg/kg (BaF3 [13]): 88%
- inhibition in vivo at 25 mg/kg (BaF3 [14]): 111%
- inhibition in vivo at 25 mg/kg (BaF3 [15]): 119%
- inhibition in vivo at 100 mg/kg (BaF3 [16]): 127%
- Activity [17]: Non-Toxic
- Activity [18]: Non-Toxic
- Activity [19]: Non-Toxic
- Activity [20]: Non-Toxic
- inhibition (INH) [21]: 100%

- GI50 (BaF3 [1]): 12 nM
- GI50 (BaF3 [2]): 574 nM
- GI50 (BaF3 [3]): 23 nM
- logD [4]: 5.4
- Stability [5]: 1%
- Stability [6]: 20%
- solubility [7]: > 1100 µg/mL
- Papp [8]: 5.2 ×10⁻⁶ cm/s
- fraction unbound [9]: < 0.002
- fraction unbound [10]: < 0.002
SMILES: COc1nn([C@H]2C[C@H](C)N(C)C2)cc1-c1cnc(Nc2ccnc(-c3cnn(S(=O)(=O)C4CC4)c3)n2)cc1OC(C)C

- GI50 (BaF3 [1]): 19 nM
- GI50 (BaF3 [2]): 463 nM
SMILES: CC(C)Oc1cc(Nc2ccnc(-c3cnn(S(=O)(=O)C4CC4)c3)n2)ncc1-c1cnn([C@H]2CCN(C)C2)c1

- GI50 (BaF3 [1]): 6.5 nM
- GI50 (BaF3 [2]): 565 nM
- GI50 (BaF3 [3]): 18 nM
- logD [4]: 4.4
- Stability [5]: 24%
- Stability [6]: 48%
- solubility [7]: > 1100 µg/mL
- solubility [22]: 15 µg/mL (≈ 25.3 µM)
- Papp [8]: 3.1 ×10⁻⁶ cm/s
- fraction unbound [9]: < 0.002
- fraction unbound [10]: < 0.002
SMILES: COc1nn(C2CCN(C)CC2)cc1-c1cnc(Nc2ccnc(-c3cnn(S(=O)(=O)C4CC4)c3)n2)cc1OC(C)C

- GI50 (BaF3 [1]): 9.6 nM
- GI50 (BaF3 [2]): 203 nM
SMILES: CC(C)Oc1cc(Nc2ccnc(-c3cnn(S(=O)(=O)C4CC4)c3)n2)ncc1-c1cnn(C2CCN(C)CC2)c1
